Test results as given in PubChem BioAssay AID2060626 (Molecular Pharmacology Branch, DTP, NCI, 2025).

Test system: 168753-222-R-J1-PDC complex spheroid viability
Assay: Anticancer human tumor 168753-222-R-J1-PDC patient-derived bladder carcinoma cell line growth inhibition [CLK]
Conditions: for IC50: curve of first compound; for viability, T/C: stronger effect = lower value
From the text: A high-throughput screen of multi-cell type tumor spheroids was designed to identify active combinations of […] and targeted small molecules. Complex spheroids include a stromal component modeled by human endothelial cells (HUVEC) and fibroblasts modeled by human mesenchymal stem cells (MSCs). The concentration ranges selected for each drug and investigational agent were based upon clinically achievable concentrations if the clinical Cmax of the agent was known.
Compounds. The drugs and investigational agents: cirtuvivint (SM08502; NSC835563), CC-671 (NSC850746), vemurafenib (NSC761431), tapotoclax (NSC804041), sotorasib (NSC818433), adagrasib (NSC831453), MRTX-1133 (NSC836407), BAY2416964 (NSC825713), copanlisib (NSC816437), inavolisib (NSC800729), abemaciclib (NSC768073), osimertinib (NSC779217), entinostat (NSC756642), eltanexor (KPT-8602, NSC794443), venetoclax (NSC766270), ceralasertib (NSC777638), bortezomib (NSC756655), olaparib (NSC753686), talazoparib (NSC767125), alisertib (NSC759677), peposertib (NSC802822), gemcitabine (NSC613327), 5-fluorouracil (NSC19893), SN-38 (NSC673596), oxaliplatin (NSC266046), paclitaxel (NSC125973), and doxorubicin (NSC123127), were obtained from the National Cancer Institute (NCI) Developmental Therapeutics Program Chemical Repository. The FDA-approved anticancer drug set is available from the Developmental Therapeutics Program at https://dtp.cancer.gov/organization/dscb/obtaining/available plates.htm. […] The stock solutions were prepared in dimethyl sulfoxide (DMSO, Sigma-Aldrich, St. Louis, MO, cat. D2650), except for the platinum complexes which were prepared in saline (Quality Biological, Gaithersburg, MD, cat. 114-055-101), at 800-fold the tested concentration and stored at -70 degrees C prior to their use. All drugs and investigational agents were tested over a range starting from a high concentration at or near the clinical Cmax and decreasing in half-log increments. If the clinical Cmax for an agent had not been determined, the highest concentration tested was 10 microM.
Cell Culture. All cells were maintained in an incubator at 37 degrees C and 5% CO2 with 95% humidity. The PDC lines were cultured according to standard operating procedures established by the NCI PDMR. Briefly, all PDCs were thawed and cultured in Matrigel-coated flasks prepared with a working solution of 1X Ham's F-12 nutrient mix, without supplementation (Invitrogen, Waltham, MA, cat. 11765054), 100 U/mL penicillin-streptomycin (Invitrogen, cat. 15140122), and 2.5% Matrigel (Corning Inc., Corning, NY, cat. 354248) for the first three passages. The 947758-054-R-J2-PDC line was cultured in 6B/Colon 1A media, which includes advanced DMEM/F-12 (Thermo Fisher Scientific, cat. 12634028), 10 mM HEPES (Thermo Fisher Scientific, cat. 15630080), 1X GlutaMAX supplement (Thermo Fisher Scientific, cat. 35050061), 0.1 mg/mL primocin (InvivoGen, cat. ant-pm-2), 10% defined fetal bovine serum, heat inactivated (HyClone Laboratories Inc., cat. SH30070.03HI), 1.25 mM N-Acetyl-L-cysteine (Sigma-Aldrich, cat. A9165), 10 mM nicotinamide (Sigma-Aldrich, cat. N0636), 1X B-27 supplement (Thermo Fisher Scientific, cat. 17504044), 1X N-2 supplement (Thermo Fisher Scientific, cat. 17502048), and 10 microM Y-27632 dihydrochloride (Tocris Bioscience, cat. 1254). The 876862-298-R-J1-PDC was cultured in 6E media, which includes all 6B/Colon 1A media components plus 50% L-WRN conditioned media (ATCC, cat. CRL-3276), 50 ng/mL recombinant human EGF recombinant protein (hEGF; Thermo Fisher Scientific, cat. PHG0311), 10 ng/mL recombinant human fibroblast growth factor 10 (hGFG-10; PeproTech, cat. 100-26), 1 ng/mL recombinant human fibroblast growth factor 2 (hFGF-2; PeproTech, cat. 100-18B), and 1 µM prostaglandin E2 (PGE2; Tocris, cat. 2296). The 227483-062-R1-J1-PDC line was cultured in Panc media, containing all 6E components except hFGF-2, with the addition of 500 nM SB-431542 (Selleckchem, cat. S1067) and 10 nM gastrin (Tocris, cat. 3006). […]
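Also: viability measured after seven days of drug exposure.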
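For viability, T/C in this document: luminescence signal used as surrogate for viable cell amount; 100% = DMSO vehicle control wells.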

C=CC(=O)Nc1cc(Nc2nccc(-c3cn(C)c4ccccc34)n2)c(OC)cc1N(C)CCN(C)C + CNC(=O)c1ccc(Nc2nc(OC3CCCC3)c3c(-c4ccc5nc(C)oc5c4)c[nH]c3n2)c(OC)c1
IC50 (second compound 0.0316 µM): > 300 nM
IC50 (second compound 0.1 µM): > 300 nM
IC50 (second compound 0.316 µM): > 300 nM
IC50 (second compound 1 µM): < 0.949 nM
IC50 (second compound 3.16 µM): < 0.949 nM
IC50 (second compound 10 µM): < 0.949 nM
viability, T/C (second compound 0.0316 µM, first compound 0.000949 µM): 122%
viability, T/C (second compound 0.0316 µM, first compound 0.003 µM): 96.3%
viability, T/C (second compound 0.0316 µM, first compound 0.00949 µM): 102%
viability, T/C (second compound 0.0316 µM, first compound 0.03 µM): 102%
viability, T/C (second compound 0.0316 µM, first compound 0.0949 µM): 107%
viability, T/C (second compound 0.0316 µM, first compound 0.3 µM): 103%
viability, T/C (second compound 0.1 µM, first compound 0.000949 µM): 91.1%
viability, T/C (second compound 0.1 µM, first compound 0.003 µM): 87%
viability, T/C (second compound 0.1 µM, first compound 0.00949 µM): 86.7%
viability, T/C (second compound 0.1 µM, first compound 0.03 µM): 76.8%
viability, T/C (second compound 0.1 µM, first compound 0.0949 µM): 91.7%
viability, T/C (second compound 0.1 µM, first compound 0.3 µM): 90.2%
viability, T/C (second compound 0.316 µM, first compound 0.000949 µM): 73.5%
viability, T/C (second compound 0.316 µM, first compound 0.003 µM): 69.6%
viability, T/C (second compound 0.316 µM, first compound 0.00949 µM): 69.3%
viability, T/C (second compound 0.316 µM, first compound 0.03 µM): 63.8%
viability, T/C (second compound 0.316 µM, first compound 0.0949 µM): 71.8%
viability, T/C (second compound 0.316 µM, first compound 0.3 µM): 62.5%
viability, T/C (second compound 1 µM, first compound 0.000949 µM): 37.1%
viability, T/C (second compound 1 µM, first compound 0.003 µM): 39.1%
viability, T/C (second compound 1 µM, first compound 0.00949 µM): 38.5%
viability, T/C (second compound 1 µM, first compound 0.03 µM): 40.8%
viability, T/C (second compound 1 µM, first compound 0.0949 µM): 30.8%
viability, T/C (second compound 1 µM, first compound 0.3 µM): 29%
viability, T/C (second compound 3.16 µM, first compound 0.000949 µM): 18.2%
viability, T/C (second compound 3.16 µM, first compound 0.003 µM): 19.3%
viability, T/C (second compound 3.16 µM, first compound 0.00949 µM): 19.5%
viability, T/C (second compound 3.16 µM, first compound 0.03 µM): 22.8%
viability, T/C (second compound 3.16 µM, first compound 0.0949 µM): 19.6%
viability, T/C (second compound 3.16 µM, first compound 0.3 µM): 16.9%
viability, T/C (second compound 10 µM, first compound 0.000949 µM): 16.3%
viability, T/C (second compound 10 µM, first compound 0.003 µM): 19.8%
viability, T/C (second compound 10 µM, first compound 0.00949 µM): 18.5%
viability, T/C (second compound 10 µM, first compound 0.03 µM): 15.6%
viability, T/C (second compound 10 µM, first compound 0.0949 µM): 19.1%
viability, T/C (second compound 10 µM, first compound 0.3 µM): 15.6%
